# Experiments:
# [1] = target: T1, Candida Antarctica Lipase B (CALB) (Moesziomyces antarcticus, UniProt P41365); experiment: Enzymatic degradation of PS20 by CALB, PS20 by RP-ELSD; type: biochemical; details: for PS20 degradation (in words): 15% (w/v) excipient
# T1 construct: purchased Sigma Aldrich Inc. (St. Louis, Mo.)
# Description: (§1) Polysorbate concentration was determined using reverse phase ultra-performance liquid chromatography using evaporative light scattering detection (RP-ELSD). Samples were analyzed using an Agilent 1100 series high performance liquid chromatography system (HPLC) fitted with a Waters Oasis MAX cartridge column (20×2.1 mm, 30 μm particle size). The HPLC system was set up with a switching valve directing column flow-through to either waste or a Varian 380-LC evaporative light scattering detector set to 100° C. The mobile phases consisted of 2% formic acid in water (Pump A) and 2% formic acid in isopropanol (Pump B). The pump gradient was isocratic at 10% pump B during equilibration, linear to 20% pump B for 1 minute, isocratic at 20% pump B for 2.4 minutes, linear to 100% pump B for 0.1 minutes, isocratic at 100% pump B for 1.1 minutes, linear to 10% pump B for 0.1 minutes, and finally isocratic at 10% pump B for 1.9 minutes. The switching valve directed column flow-through to waste at the beginning of every injection, and then directed flow to the detector after 2.4 minutes until the end of the gradient. In order to quantitate the PS20 concentration, a standard curve was generated by injecting 20 μL of solutions containing between 0% w/v and 0.4% w/v PS20. For excipients which affected the migration time of PS20 through the column, PS20 standard curve solutions containing the relevant excipient were included in the analysis to facilitate accurate quantitation.
# […] Samples of 0.02% PS20 in pH 5.5 buffer containing either no additional excipient, 15% Sucrose, […] the enzymes porcine pancreatic lipase (PPL), lipoprotein lipase (LPL), Candida Antarctica lipase (CALB) and rabbit liver esterase (RLE) at room temperature. PPL samples were digested with 15 μg/mL enzyme for 4.5 hours. LPL samples were digested with 70 μg/mL enzyme for 5 hours. CALB samples were digested with 0.1 mg/mL immobilized enzyme for 1 hour. RLE samples were digested with 15 μg/mL enzyme for 5 hours. All digestions were conducted at room temperature.
# PPL digestion was stopped by heat inactivation in an 85° C. water bath for 30 minutes. LPL and RLE digestion could not be stopped by heat inactivation, so the samples were analyzed immediately for PS20 content. CALB digestion was stopped by filtering out the immobilized enzyme beads. In order to permit particle formation, CALB samples were placed at 5° C. overnight. RLE and LPL samples were frozen at −20° C. overnight to impede enzymatic activity and were then thawed over ice immediately prior to particle analysis.
# As described above, all samples were analyzed for PS20 content by high performance liquid chromatography (Agilent 1100 series) with an inline evaporative light scattering detector (Varian 380-LC series). Visible particle inspection was conducted on a Seidenader visual inspection instrument. Subvisible particle analysis was conducted on a HIAC 9703 particle counter.
# [2] = Oxidative PS20 degradation with AAPH, PS20 by RP-ELSD; type: physicochemical; details: 15% (w/v) excipient; 5 mM AAPH at 40° C. for 24 hours; n=3
# Description: as §1, with “The pump gradient was isocratic at 10% pump B during equilibration, linear to 20% pump B for 1 minute, isocratic at 20% pump B for 2.4 minutes, linear to 100% pump B for 0.1 minutes, isocratic at 100% pump B for 1.1 minutes, linear to 10% pump B for 0.1 minutes, and finally isocratic at 10% pump B for 1.9 minutes. The switching valve directed column flow-through to waste at the beginning of every injection, and then directed flow to the detector after 2.4 minutes until the end of the gradient.” left out
# The ability of cyclodextrins to inhibit oxidative PS20 degradation was evaluated using 2,2′-Azobisisobutyramidinium (AAPH), which has been shown previously to degrade PS20 (Borisov et al., J. Pharm. Sci. 104:1005-1018 (2015)). […] Polysorbate 20 degradation was determined by RP-ELSD for samples oxidized with 5 mM AAPH at 40° C. for 24 hours containing no excipient (control), 15% (w/v) sucrose, and 15% (w/v) HP-β-CD.
# [3] = 0.02 (w/v) PS20, CALB digestion (FIG. 9)
# T1 sequence (P41365 26-342): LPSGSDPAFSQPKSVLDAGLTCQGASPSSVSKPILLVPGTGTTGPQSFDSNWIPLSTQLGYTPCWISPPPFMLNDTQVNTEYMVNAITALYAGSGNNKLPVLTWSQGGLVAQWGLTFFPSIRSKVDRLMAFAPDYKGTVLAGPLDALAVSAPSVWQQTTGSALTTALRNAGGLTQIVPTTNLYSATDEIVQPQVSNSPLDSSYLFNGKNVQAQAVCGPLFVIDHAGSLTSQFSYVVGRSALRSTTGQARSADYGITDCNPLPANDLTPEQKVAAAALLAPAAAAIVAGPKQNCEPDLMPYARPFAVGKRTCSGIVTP
compound,measurement,setting,value
2-hydroxypropyl-α-cyclodextrin [HP-α-CD],PS20 degradation (in words),[1]; [3],no significant PS20 degradation
2-hydroxypropyl-β-cyclodextrin [HP-β-CD],PS20 degradation (in words),[1]; [3],no significant PS20 degradation
same,Polysorbate 20 (Relative %),"[1]; 15% w/v HP-β-CD, 0.02% PS20, pH 5.5, 0.1 mg/mL immobilized CALB, 1 hour, room temperature",85.7%
same,decrease in relative percent PS20,[2],3.6%
2-hydroxypropyl-γ-cyclodextrin [HP-γ-CD],PS20 degradation,"[1]; 15% HP-γ-CD, 0.02 (w/v) PS20, CALB digestion (FIG. 9)",~82%
"OC[C@H]1O[C@@](CO)(O[C@H]2O[C@H](CO)[C@@H](O)[C@H](O)[C@H]2O)[C@@H](O)[C@@H]1O [sucrose, reference compound]",PS20 degradation (in words),[1]; [3],significant decreases in PS20 concentration
same,decrease in relative percent PS20,[2],9.8%
